From US20240208984A1, “BIVALENT LIGANDS TO UNDERSTAND DIMERIZATION OF THE MU OPIOID RECEPTOR AND THE CHEMOKINE RECEPTOR CCR5 IN NEUROLOGICAL DISORDERS” (priority 2021, published 2024)

Experiments:
CCR5 = CCR5 (Homo sapiens (Human), UniProt P51681); assay: Calcium mobilization assay in HOS-CCR5 cells; format: cell-based
Experimental: We then conducted the calcium mobilization assay to further test both the agonist and antagonist properties of the newly synthesized compounds in the HOS-CCR5 (stably transfected for the expression of CCR5) cells using our reported protocol, as calcium mobilization is associated with the activation of CCR5. Prior to the assay, the HOS-CCR5 cells were transiently transfected with a Gqi5 to boost calcium signaling levels.
In the antagonism assay, these compounds were assessed for their ability to inhibit CCL5-stimulated Ca^2+ mobilization.
HOS-CCR5 cells were transfected with Gqi5 pcDNA16 using Lipofectamine 2000 (Invitrogen) according to the manufacturer's recommended procedure and maintained in RPMI 1640 supplemented with 10% fetal bovine serum, 100 μg/mL penicillin, 100 μg/mL streptomycin, and 1 mg/mL G418 at 37° C. and 5% C02. 48 h after transfection, a total of 2,500,000 cells were spun down and brought back up in 8 mL of 50:1 HBSS: HEPES assay buffer. Cells were then plated at 25,000 cells per well into a clear bottom, black 96-well plate (Greiner Bio-one) and 50 μL of Fluo4 loading buffer [40 μL of 2 μM Fluo4-AM (Invitrogen), 100 μL of 2.5 mM probenecid, in 5 mL of assay buffer] was added to bring the volume up to 130 μL. After incubating for 45 min, 50 μL of varying concentrations of tested compounds were added and the plate was incubated for an additional 15 min. Plates were then read on a FlexStation3 microplate reader (Molecular Devices) at 494/516 ex/em for a total of 120 s. After 16 s of reading, 20 μL of 200 nM CCL5 (Biosource) in assay buffer, or assay buffer alone, was added to the wells to bring the total volume up to 200 μL. The changes in calcium mobilization were monitored and peak height values were obtained using SoftMaxPro software (Molecular Devices). Non-linear regression curves and IC50 values were generated using GraphPad Prism 8.0.1 (GraphPad Software, San Diego, CA). All experiments were repeated at least three times.

[1] = target: Rhesus macaque chemokine CCR5 receptors (Macaca mulatta (Rhesus macaque), UniProt P61813); assay: In vitro CCR5 radioligand binding assay; conditions: [125I]MIP-1α radioligand; Chem-1 cells; Cheng-Prusoff; mean ± SEM; read-out: CCR5 Radioligand Binding Affinity Ki
Experimental: In vitro CCR5 radioligand binding studies. To verify the binding affinity of the bivalent ligands to the CCR5, the competitive radioligand binding assay was conducted in recombinant rhesus macaque CCR5-expressing Chem-1 cells, and macrophage inflammatory protein 1 beta (MIP-1β) was used as a control.
The CCR5 competitive radioligand binding assay was conducted following previously reported studies.74, 75 Rhesus macaque chemokine CCR5 receptors expressed in Chem-1 cells are assayed in modified HEPES buffer (50 mM HEPES, 1 mM CaCl2, 5 mM MgCl2, 0.2% BSA, pH 7.4). 3 μg of membrane protein was incubated with 0.10 nM [^125I]MIP-1α in the presence of six concentrations of tested compounds (10 μM, 1 μM, 0.1 μM, 10 nM, 1 nM, and 0.1 nM) for 90 min at 25° C. Non-specific binding is estimated in the presence of 0.1 μM MIP-1β.

[2] = tested on: HIV-1BaL Env-pseudotyped Luc-expressing virus; assay: HIV-1-Luc infection assay in PBMCs; format: cell-based; conditions: non-stimulated PBMCs; 1000 nM
From the text: Peripheral blood mononuclear cells (PBMCs) include large numbers of CCR5-expressing leukocytes and are susceptible to infection by R5-tropic HIV-1 strains.
Isolated human PBMCs were obtained commercially from the New York Blood Bank and exempt from Human Subjects criteria (NIH Exemption 4: website located at nih.gov/sites/default/files/exemption_infographic_v7_508c-3-21-19.pdf). The adult PBMCs are publicly available and no information or identifiers are provided so subjects cannot be identified. […] After 3 days in culture, supernatants were harvested, floating cells removed by centrifugation, HIV-1 p24 Ag measured by commercial ELISA (Zeptometrix), and viral aliquots stored at −80° C. […]
PBMCs were isolated from buffy coats of healthy blood donors by centrifugation in Ficoll gradient (MP Biomedicals). Viable cells, determined by Trypan blue exclusion, were stimulated, or not, for 2 days with 5 μg/mL PHA (Sigma). […]
After 2 days of infection, 100 μL of 2× Luciferase Substrate containing lysing buffer (BRIGHT-GLO™ Luciferase Assay System, Promega) were added per well, plate was agitated for 2 mins (700 rpm) and Luminescence was evaluated using a PHERASTAR® FS plate reader (BMG Labtech).

Chain of CCR5 (P51681 whole entry): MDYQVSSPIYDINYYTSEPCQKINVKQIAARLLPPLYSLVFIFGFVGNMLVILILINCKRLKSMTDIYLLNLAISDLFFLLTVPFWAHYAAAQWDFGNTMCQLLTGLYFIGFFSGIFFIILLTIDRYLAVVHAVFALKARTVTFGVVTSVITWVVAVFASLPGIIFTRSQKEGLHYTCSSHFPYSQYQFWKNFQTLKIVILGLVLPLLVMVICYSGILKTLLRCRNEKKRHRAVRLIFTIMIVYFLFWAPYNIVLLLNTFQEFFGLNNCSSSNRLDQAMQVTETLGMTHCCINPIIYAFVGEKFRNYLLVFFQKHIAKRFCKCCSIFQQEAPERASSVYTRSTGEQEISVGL
Experimental for GHOST CCR5 cells: These compounds were concurrently assessed for cytotoxicity in GHOST-CCR5-expressing cells using the XTT assay. […] The therapeutic index (TI, TC50/EC50) values were calculated if applicable.
100 μL of GHOST CCR5 cells at a density of 1×10^4 cells/well in 10% complete DMEM (10% FBS with 1% L-glutamine and 1% Penicillin/Streptomycin) media were plated in a 96-well flat bottom plate and incubated for 24 h at 37° C./5% CO2. Following the incubation, 100 μL of each compound at 6 concentrations were added in triplicate to both efficacy and toxicity plates followed by 100 μL of HIV-1BaL at a pre-determined titer to the plates being evaluated for efficacy and 50 μL of complete DMEM to the plates being evaluated for cytotoxicity. The cultures were incubated for 6 days at 37° C./5% CO2. Following the incubation, 50 μL of cell culture supernatant was removed from the wells of the efficacy plates for subsequent evaluation of virus content by reverse transcriptase activity assay. The toxicity plates being evaluated for cytotoxicity were stained with XTT.
TC50 values for the tested compounds were derived by measuring the reduction of the tetrazolium dye XTT (2,3-bis(2-methoxy-4-nitro-5-sulfophenyl)-5-[(phenylamino)carbonyl]-2H-tetrazolium hydroxide). XTT in metabolically active cells is metabolized by the mitochondrial enzyme NADPH oxidase to a soluble formazan product. XTT solution was prepared as a stock of 1 mg/mL in RPMI-1640 without additives. Phenazine methosulfate (PMS) solution was prepared at 0.15 mg/mL in DPBS and stored in the dark at −20° C. XTT/PMS stock was prepared immediately before use by adding 40 μL of PMS per mL of XTT solution. 50 μL of XTT/PMS was added to each well of the plate and the plate was incubated for 4 h at 37° C. The plates were sealed and inverted several times to mix the soluble formazan product and the plate was read at 450 nm (650 nm reference wavelength) with a Molecular Devices SPECTRAMAX® Plus 384 96 well format spectrophotometer.

CC(C)c1nnc(CCNC(=O)COCC(=O)NCCCCCCCNC(=O)COCC(=O)NC2CC[C@@]3(O)[C@H]4Cc5ccc(O)c6c5[C@@]3(CCN4CC3CC3)[C@H]2O6)n1C1CC2CCC(C1)N2CC[C@H](NC(=O)C1CCC(F)(F)CC1)c1ccccc1 (stereo partly drawn) [VZMC013]
IC50 (CCR5; HOS-CCR5 transfected with Gqi5, mean ± SEM, read-out: Inhibition of CCL5-stimulated Intracellular Ca2+ Mobilization IC50): 57.5 nM | CCR5 activation (agonism) in Ca2+ mobilization (CCR5; agonist mode, range of concentrations tested): none of these compounds appeared to activate CCR5 | Cytotoxicity TC50 (GHOST CCR5 cells; GHOST CCR5 cells, XTT, triplicate): >100000 nM | cell viability (GHOST CCR5 cells; any concentration ≤100 μM, untreated cells = 100%): ~100% | Ki [1]: 3.29 nM | Inhibition of HIV-1-Luc infectivity [2]: nearly complete blockade
